This note sets out measurements from PubChem BioAssay AID651980 (The Scripps Research Institute Molecular Screening Center, 2013).

Calls of active or inactive are those of the source. The rule behind the calls is not given here.

Holding throughout (assay): PubChem AID 651980
Test [1] concerns the target Acylamino-acid-releasing enzyme (Homo sapiens) (UniProt P13798). The following applies: HEK293T in situ, ABPP-SILAC LC-MS/MS, NHU5 probe; APEH; at 5 µM; active compounds read low.
The next test has as its system TPP2. To be noted: HEK293T in situ, ABPP-SILAC LC-MS/MS, NHU5 probe, at 5 µM, active compounds read low.
The subject of another test is ESD. To be noted: HEK293T in situ, ABPP-SILAC LC-MS/MS, NHU5 probe, at 5 µM, active compounds read low.
For a further test, the system named is LYPLAL1. The following applies: HEK293T in situ, ABPP-SILAC LC-MS/MS, NHU5 probe, at 5 µM, active compounds read low.
The next test relates to CTSA. To be noted: HEK293T in situ, ABPP-SILAC LC-MS/MS, NHU5 probe, at 5 µM, active compounds read low.
The next test has as its system PREP. To be noted: HEK293T in situ, ABPP-SILAC LC-MS/MS, NHU5 probe, at 5 µM, active compounds read low.
Test [2] deals with Acyl-protein thioesterase 1 (Homo sapiens) (UniProt O75608). To be noted: HEK293T in situ, ABPP-SILAC LC-MS/MS, NHU5 probe; LYPLA1; at 5 µM; active compounds read low.
Chain of Acyl-protein thioesterase 1 (Homo sapiens) (O75608 whole entry, looked up): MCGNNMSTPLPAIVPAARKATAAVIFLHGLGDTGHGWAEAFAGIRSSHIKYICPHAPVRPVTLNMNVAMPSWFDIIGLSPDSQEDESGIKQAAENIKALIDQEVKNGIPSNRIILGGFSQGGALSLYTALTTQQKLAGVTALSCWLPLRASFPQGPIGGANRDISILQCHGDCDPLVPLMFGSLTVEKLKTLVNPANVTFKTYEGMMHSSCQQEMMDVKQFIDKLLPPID
The test system of another test is PLA2G4A. The following applies: HEK293T in situ, ABPP-SILAC LC-MS/MS, NHU5 probe, at 5 µM, active compounds read low.
In another test the test system is ABHD6. To be noted: HEK293T in situ, ABPP-SILAC LC-MS/MS, NHU5 probe, at 5 µM, active compounds read low.
A further test relates to MGLL. To be noted: HEK293T in situ, ABPP-SILAC LC-MS/MS, NHU5 probe, at 5 µM, active compounds read low.
For test [3], the target named is Acyl-protein thioesterase 2 (Homo sapiens) (UniProt O95372). To be noted: HEK293T in situ, ABPP-SILAC LC-MS/MS, NHU5 probe; LYPLA2; at 5 µM; active compounds read low.
Chain of Acyl-protein thioesterase 2 (Homo sapiens) (O95372 whole entry, looked up): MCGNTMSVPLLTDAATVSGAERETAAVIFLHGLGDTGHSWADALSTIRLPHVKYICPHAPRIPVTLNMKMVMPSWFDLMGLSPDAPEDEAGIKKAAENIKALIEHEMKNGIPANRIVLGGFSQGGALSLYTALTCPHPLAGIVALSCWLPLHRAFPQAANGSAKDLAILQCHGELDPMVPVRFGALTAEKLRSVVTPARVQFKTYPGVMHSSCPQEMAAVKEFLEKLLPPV
Another test concerns AADACL1. The following applies: HEK293T in situ, ABPP-SILAC LC-MS/MS, NHU5 probe, at 5 µM, active compounds read low.
Another test deals with ABHD12. The following applies: HEK293T in situ, ABPP-SILAC LC-MS/MS, NHU5 probe, at 5 µM, active compounds read low.
Test [4] concerns the target Protein phosphatase methylesterase 1 (Homo sapiens) (UniProt Q9Y570). To be noted: HEK293T in situ, ABPP-SILAC LC-MS/MS, NHU5 probe; PPME1; at 5 µM; active compounds read low.
Another test has as its system PNPLA6. To be noted: HEK293T in situ, ABPP-SILAC LC-MS/MS, NHU5 probe, at 5 µM, active compounds read low.
Test [5] concerns the target Dipeptidyl peptidase 9 (Homo sapiens) (UniProt Q86TI2). To be noted: HEK293T in situ, ABPP-SILAC LC-MS/MS, NHU5 probe; DPP9; at 5 µM; active compounds read low.
The subject of a further test is ABHD10. To be noted: HEK293T in situ, ABPP-SILAC LC-MS/MS, NHU5 probe, at 5 µM, active compounds read low.
In test [6] the target is Fatty acid synthase (Homo sapiens) (UniProt P49327). To be noted: HEK293T in situ, ABPP-SILAC LC-MS/MS, NHU5 probe; FASN; at 5 µM; active compounds read low.
Chain of Fatty acid synthase (Homo sapiens) (P49327 whole entry, looked up): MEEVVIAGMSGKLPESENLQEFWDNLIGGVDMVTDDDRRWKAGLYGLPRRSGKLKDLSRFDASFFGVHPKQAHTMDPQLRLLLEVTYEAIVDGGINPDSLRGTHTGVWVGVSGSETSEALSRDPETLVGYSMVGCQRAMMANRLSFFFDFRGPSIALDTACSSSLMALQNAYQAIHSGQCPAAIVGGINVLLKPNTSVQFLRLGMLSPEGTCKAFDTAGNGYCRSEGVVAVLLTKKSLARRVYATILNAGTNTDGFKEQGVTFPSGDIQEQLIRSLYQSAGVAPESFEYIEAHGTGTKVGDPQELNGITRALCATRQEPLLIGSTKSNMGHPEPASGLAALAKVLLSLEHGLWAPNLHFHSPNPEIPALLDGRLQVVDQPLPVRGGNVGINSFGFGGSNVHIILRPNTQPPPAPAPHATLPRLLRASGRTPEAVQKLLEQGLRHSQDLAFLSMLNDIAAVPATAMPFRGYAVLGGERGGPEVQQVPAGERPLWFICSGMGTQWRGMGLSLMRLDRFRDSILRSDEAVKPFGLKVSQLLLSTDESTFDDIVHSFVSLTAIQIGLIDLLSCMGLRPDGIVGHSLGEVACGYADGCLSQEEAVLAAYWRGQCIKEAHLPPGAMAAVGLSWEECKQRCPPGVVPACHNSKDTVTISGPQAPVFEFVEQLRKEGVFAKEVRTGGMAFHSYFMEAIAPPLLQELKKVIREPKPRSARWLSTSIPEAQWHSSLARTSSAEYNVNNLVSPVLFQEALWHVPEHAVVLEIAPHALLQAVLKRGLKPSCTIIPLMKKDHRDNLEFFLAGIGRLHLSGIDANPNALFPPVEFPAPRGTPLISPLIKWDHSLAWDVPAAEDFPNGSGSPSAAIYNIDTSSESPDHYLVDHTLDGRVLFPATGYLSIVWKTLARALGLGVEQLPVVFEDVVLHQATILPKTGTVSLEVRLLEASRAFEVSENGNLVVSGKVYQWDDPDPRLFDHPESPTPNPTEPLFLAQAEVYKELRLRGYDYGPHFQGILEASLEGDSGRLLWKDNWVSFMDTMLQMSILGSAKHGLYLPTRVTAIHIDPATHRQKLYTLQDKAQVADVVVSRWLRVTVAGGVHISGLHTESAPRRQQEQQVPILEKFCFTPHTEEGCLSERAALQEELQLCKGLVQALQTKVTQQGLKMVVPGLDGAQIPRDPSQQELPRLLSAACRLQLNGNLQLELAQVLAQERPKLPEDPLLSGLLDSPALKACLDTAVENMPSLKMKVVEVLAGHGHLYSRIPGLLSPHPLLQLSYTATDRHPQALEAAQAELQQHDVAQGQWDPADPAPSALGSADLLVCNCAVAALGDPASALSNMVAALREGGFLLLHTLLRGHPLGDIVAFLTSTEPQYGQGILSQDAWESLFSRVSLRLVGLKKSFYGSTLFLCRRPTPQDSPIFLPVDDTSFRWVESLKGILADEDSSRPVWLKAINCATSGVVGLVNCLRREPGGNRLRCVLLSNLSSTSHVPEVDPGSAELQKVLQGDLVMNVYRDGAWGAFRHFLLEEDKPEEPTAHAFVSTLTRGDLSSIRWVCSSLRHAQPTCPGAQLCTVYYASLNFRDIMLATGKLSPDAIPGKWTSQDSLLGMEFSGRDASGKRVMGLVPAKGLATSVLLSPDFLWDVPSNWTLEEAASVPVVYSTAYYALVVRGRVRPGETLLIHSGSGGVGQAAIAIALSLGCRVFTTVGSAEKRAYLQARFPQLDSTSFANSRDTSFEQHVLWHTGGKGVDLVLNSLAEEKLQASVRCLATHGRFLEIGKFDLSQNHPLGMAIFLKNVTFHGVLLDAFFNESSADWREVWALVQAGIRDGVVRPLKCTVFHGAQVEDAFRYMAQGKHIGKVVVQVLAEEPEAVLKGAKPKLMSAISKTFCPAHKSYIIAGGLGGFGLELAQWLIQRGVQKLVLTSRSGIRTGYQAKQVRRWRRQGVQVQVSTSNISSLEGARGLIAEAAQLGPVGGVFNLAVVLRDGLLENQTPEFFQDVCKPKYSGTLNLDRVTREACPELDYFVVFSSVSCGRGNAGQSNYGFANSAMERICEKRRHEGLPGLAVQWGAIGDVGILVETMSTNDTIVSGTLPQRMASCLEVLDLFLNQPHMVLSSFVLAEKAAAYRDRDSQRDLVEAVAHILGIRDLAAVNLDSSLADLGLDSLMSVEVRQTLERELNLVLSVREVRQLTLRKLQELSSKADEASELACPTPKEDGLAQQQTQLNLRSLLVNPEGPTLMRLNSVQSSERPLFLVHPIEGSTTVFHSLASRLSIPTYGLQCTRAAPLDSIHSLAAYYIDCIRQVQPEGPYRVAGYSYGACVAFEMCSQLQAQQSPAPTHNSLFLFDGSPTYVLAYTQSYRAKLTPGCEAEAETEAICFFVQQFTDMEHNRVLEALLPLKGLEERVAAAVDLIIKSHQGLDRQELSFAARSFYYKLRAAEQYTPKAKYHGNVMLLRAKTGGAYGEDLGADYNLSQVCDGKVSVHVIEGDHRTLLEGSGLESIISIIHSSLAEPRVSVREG

Chain of Acylamino-acid-releasing enzyme (Homo sapiens) (P13798 whole entry, looked up): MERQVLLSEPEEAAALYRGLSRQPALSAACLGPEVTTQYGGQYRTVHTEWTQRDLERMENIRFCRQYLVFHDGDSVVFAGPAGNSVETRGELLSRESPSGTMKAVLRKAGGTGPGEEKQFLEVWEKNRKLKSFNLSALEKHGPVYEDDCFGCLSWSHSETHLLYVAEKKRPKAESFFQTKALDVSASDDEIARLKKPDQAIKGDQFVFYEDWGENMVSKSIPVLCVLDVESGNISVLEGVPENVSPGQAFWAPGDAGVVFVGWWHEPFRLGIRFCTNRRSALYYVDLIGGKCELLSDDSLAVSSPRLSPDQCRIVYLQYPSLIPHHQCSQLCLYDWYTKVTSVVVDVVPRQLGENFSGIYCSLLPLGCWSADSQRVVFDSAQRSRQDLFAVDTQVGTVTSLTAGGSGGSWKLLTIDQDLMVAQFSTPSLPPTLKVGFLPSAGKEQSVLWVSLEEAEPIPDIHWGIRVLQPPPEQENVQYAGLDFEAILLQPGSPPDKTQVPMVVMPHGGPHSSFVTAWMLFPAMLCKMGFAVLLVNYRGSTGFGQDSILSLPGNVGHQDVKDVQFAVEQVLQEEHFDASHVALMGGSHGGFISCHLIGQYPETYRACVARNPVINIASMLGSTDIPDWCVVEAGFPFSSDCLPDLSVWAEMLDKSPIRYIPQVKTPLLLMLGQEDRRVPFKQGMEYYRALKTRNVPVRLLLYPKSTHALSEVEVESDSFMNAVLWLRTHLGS
Chain of Protein phosphatase methylesterase 1 (Homo sapiens) (Q9Y570 whole entry, looked up): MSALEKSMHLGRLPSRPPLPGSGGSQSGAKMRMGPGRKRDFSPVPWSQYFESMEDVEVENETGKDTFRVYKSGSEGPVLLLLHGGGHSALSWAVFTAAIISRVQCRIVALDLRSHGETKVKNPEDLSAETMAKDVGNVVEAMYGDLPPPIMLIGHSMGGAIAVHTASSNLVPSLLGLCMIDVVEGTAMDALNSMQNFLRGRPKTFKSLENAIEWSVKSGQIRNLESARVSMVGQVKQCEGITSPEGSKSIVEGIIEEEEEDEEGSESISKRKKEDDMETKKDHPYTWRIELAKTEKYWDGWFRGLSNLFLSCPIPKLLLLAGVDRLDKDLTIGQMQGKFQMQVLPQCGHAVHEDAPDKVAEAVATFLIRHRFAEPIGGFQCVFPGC
Chain of Dipeptidyl peptidase 9 (Homo sapiens) (Q86TI2 whole entry, looked up): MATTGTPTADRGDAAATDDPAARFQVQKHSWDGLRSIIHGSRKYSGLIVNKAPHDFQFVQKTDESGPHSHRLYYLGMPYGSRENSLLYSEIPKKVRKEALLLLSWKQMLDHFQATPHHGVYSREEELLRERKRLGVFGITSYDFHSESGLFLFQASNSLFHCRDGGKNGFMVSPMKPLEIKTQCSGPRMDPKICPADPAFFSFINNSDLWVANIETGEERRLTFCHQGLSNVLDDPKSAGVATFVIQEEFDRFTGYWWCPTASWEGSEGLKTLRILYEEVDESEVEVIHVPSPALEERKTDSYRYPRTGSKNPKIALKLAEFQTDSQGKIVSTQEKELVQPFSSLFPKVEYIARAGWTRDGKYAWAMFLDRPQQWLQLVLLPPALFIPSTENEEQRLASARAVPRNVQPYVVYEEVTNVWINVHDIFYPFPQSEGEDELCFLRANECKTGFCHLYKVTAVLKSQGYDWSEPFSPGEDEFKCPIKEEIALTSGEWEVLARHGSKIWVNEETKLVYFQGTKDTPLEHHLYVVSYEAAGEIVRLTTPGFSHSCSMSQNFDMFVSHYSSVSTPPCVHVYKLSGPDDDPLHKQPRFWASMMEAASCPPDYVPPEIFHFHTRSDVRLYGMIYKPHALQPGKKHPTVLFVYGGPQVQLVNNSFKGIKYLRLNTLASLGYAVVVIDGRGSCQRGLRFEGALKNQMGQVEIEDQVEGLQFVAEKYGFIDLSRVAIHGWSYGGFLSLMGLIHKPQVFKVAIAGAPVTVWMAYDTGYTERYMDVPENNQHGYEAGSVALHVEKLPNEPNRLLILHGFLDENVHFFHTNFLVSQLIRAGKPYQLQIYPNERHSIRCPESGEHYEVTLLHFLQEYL

As for `COc1ccc(N2CCN(C(=O)c3cc4c(s3)-c3ccccc3S(=O)(=O)C4)CC2)cc1`, the remaining activity ratio (inhibitor/DMSO) was 1.23 (inactive) in test [1]; 1.1 (inactive) in the test on TPP2; 1.17 (inactive) in the test on ESD; 1.23 (inactive) with LYPLAL1; 1.29 (inactive) in the test on CTSA; 1.05 (inactive) in the test on PREP. The remaining activity ratio (inhibitor/DMSO) in test [2] is 1.12 (inactive); in the test on PLA2G4A, 1.44 (inactive); with ABHD6, 1.37 (inactive); with MGLL, 0.94 (inactive); in [3] it was 0.25; in the test on AADACL1 it was 1.14 (inactive). In addition, the remaining activity ratio (inhibitor/DMSO) was 1.24 (inactive) with ABHD12; 1.13 (inactive) in test [4]; 1.27 (inactive) in the test with PNPLA6; 1.17 (inactive) in test [5]; 1.21 (inactive) with ABHD10; 1.15 (inactive) in [6].
